Experimental data published in patent publication US6479466B1, “Compositions for treating viral infections, and methods therefor” (University of Maryland, priority 1999, dated 2002).

Legend:
HIV-1SF162 = assay: p24 antigen production in monocyte-derived macrophages infected with HIV-1SF162; type: cell-based; settings: for virus production after drug removal on day 20: 10 μM ddI with or without 10 μM RV, 14 further days
Experimental: MDMs were prepared as described infra, and infected with the SF162 strain of HIV-1 obtained from Dr. Levy at the National Institutes of Health AIDS Research and Reference Reagent Program (Rockville, Md.). Briefly, 25×10^6 freshly isolated PBMCs were cultured for 5 days in T-25 flasks (Coming Costar, Cambridge, Mass.) containing culture medium supplemented with 20% FBS and 10% AB human serum (Gemini Bioproducts, Inc., Calabasas, Calif.). On day 5, non-adherent cells were removed by washing five times with warm RPMI/10%FBS medium. Adherent cells in representative flasks were counted by trypan blue exclusion. By morphology and cytochemical staining for nonspecific esterase (Sigma), more than 97% of cells were macrophages. HIV infection was carried out by adding virus to the flask at a multiplicity of infection of 2000 TCID50/10^6 adherent cells and incubating for 3 hours. Flasks were then washed 3 times with warm RPMI/10%FBS medium and cultured in RPMI containing 20% FBS plus drugs. Every 3 days culture supernatants were collected and fresh medium containing drugs was added to each flask. Virus replication was assayed weekly for p^24 antigen production as described in Example 1 in the supernatant. Cultures were maintained for 3 weeks.
For the present example, cultures were maintained in the presence of 10 μM RV and varying concentrations of ddI. The amount of p24 antigen produced in the supernatant was measured on days 7 and 16 after infection. […] However, a 10-fold or greater potentiation of ddI-antiviral activity was observed when the nucleoside analogue was combined with 10 μM RV.
MDMs derived from 2 seronegative donors were infected with the SF 162 strain of HIV-1 and cultured in the presence of 10 μM ddI, a plasma level attainable in treated individuals. The anti-HIV effect of this concentration of ddI was investigated in the presence or absence of 10 μM RV. DdI alone (10 μM) inhibited viral replication by more than 90% in both donors on day 7 after infection. […] The strong antiviral activity achieved by RV plus ddI on day 16 was further analyzed by removing the drugs from the culture. The drugs were then removed on day 20 and the macrophages maintained in culture for an additional 14 days. In donor #1 MDMs, a virus rebound followed drug removal in the cultures that had been exposed to ddI alone.

[1] = tested on: clinical isolates of HIV-1 (EJC-1 to EJC-4); assay: p24 antigen production in activated PBMCs infected with clinical isolates; type: cell-based
Experimental: For infection studies involving PBMCs, cells were stimulated with 2.5 or 10 μg/ml phytohemagglutinin (PHA; Boehringer Mannheim, Indianapolis, Ind.) for 3 days. Stimulated PBMCs were infected by incubation with virus at a multiplicity of infection of 1000 TCID50/10^6 PBMC for 2 hours. PBMCs were then washed three times with PBS and cultured in 5% CO2 at 37° C., in RPMI/10% FBS supplemented with 10 units/ml IL-2 (Boehringer Mannheim) and drugs as appropriate. PBMCs were seeded in 96-well flat-bottom plates at a density of 2×10^5 PBMCs/200 μl. Following 3 days of culture half of the medium was replaced with fresh medium containing IL-2 and drugs. After 7 days of culture, HIV-1 p24 antigen production in the culture supernatant was assayed by ELISA (Coulter, Hialeah, Fla.). The concentration of nucleoside analog, alone and in combination with resveratrol, that reduced the p24 antigen value of the untreated control by 90% (IC90) was calculated by using nonparametric regression analysis. The analysis used the median-effect equation, Fa=1/[1+(Dm/D)]^m, where D is the dose, Fa is the fraction affected, and Dm is the dose required to produce the median effect.
The increase of ddI-antiviral activity by RV was next evaluated in a panel of clinical isolates of HIV-1. […]

[2] = tested on: HIV-174V isolate (L74V mutation in the RT gene); assay: p24 antigen in activated PBMCs infected with ddI-resistant isolate 74V; type: cell-based, HIV-1
Description: The present example provides data to test whether viral isolates carrying mutations in the RT gene that confer resistance to ddI could be rendered sensitive when the nucleoside analogue was combined with RV. Viruses containing one or more of the mutations associated with resistance to ddI, e.g., an isolate carrying the L74V mutation which confers primary resistance to ddI, a virus isolate carrying 4 different resistance-associated mutations in the RT gene (HIV-1 RTMDR1) were used to infect PHA-stimulated PBMCs. The HIV-174V isolate, and the HIV-1RTMDR1 isolate (containing the M41L, L74V, V106A and T215Y mutations, conferring resistance to AZT, ddI, nevirapine and other non-nucleotide RT inhibitors) were obtained from Dr. Larder at the National Institutes of Health AIDS Research and Reference Reagent Program (Catalog #2528 and #2529, respectively, Rockville, Md.). In addition, viruses having mutations 65R, 74V, 184V in the RT gene, and a virus containing the multiple-nucleoside-resistance mutation 151M were assayed in infectivity assays using RV plus ddI. The mutations present in the RT gene of each virus as well as their susceptibility to ddI are as follows: HIV-174V(ddIIC90=2.6 μM); HIV-141L, 74V, 106A, 215Y (ddIIC90=4.5 μM); HIV-165R, 74V, 184V (ddIIC90>20 μM) and HIV-162V, 751, 77L, 151M (ddIIC90>20 μM). […]

PHA-activated PBMCs = assay: Cell viability by trypan blue staining in PHA-activated PBMCs; type: cell-based, human
Experimental: The effect of RV and […] on PBMC proliferation at the concentrations shown to enhance the anti-HIV effect of ddI were examined. Cellular proliferation in culture in the presence or absence of drugs was measured by commercial MTT assay, according to the manufacturer's instructions (Boehringer Mannheim). Cell viability was determined by trypan blue staining.
In a separate study designed to assess cell viability by trypan blue staining, PHA-activated PBMCs were cultured for 7 days in the presence of IL-2, 2 μM ddI, plus varying concentrations of RV. When RV was used at 25 μM, over 60% of cells became trypan blue stained, therefore indicating cell death. In the absence of RV or when RV was used at 5 or 10 μM, values of more than 95% cell viability were obtained.

SMILES	inhibition at 10 µM (HIV-1SF162; Human immunodeficiency virus 1, Macrophage, 168 h, ddI alone 10 μM, both donors, day 7, read-out: inhibition of viral replication) [%]	virus production after drug removal on day 20 (HIV-1SF162; donor #1 MDMs)	virus production after drug removal on day 20 (HIV-1SF162; donor #2 MDMs)	enhancement of antiviral activity of ddI ([1]; 1 μM ddI plus 5 μM RV, depending on the clinical isolate)	enhancement of ddI activity ([1]; 1 μM ddI plus 10 μM RV)	suppression of viral replication ([2]; 2 μM ddI alone) [%]	IC90 ([2]; Human immunodeficiency virus 1, PBMC, read-out: ddI IC90) [nM]	anti-HIV effect (HIV-1SF162; RV 10 μM in the absence of ddI, 2 donors)	toxicity to cells (PHA-activated PBMCs; RV 10 μM)	trypan blue stained cells (cell death) (PHA-activated PBMCs; RV 25 μM, 7 days, with IL-2 and 2 μM ddI)	cell viability (PHA-activated PBMCs; RV 5 or 10 μM, 7 days, with IL-2 and 2 μM ddI)
OC[C@@H]1CC[C@H](n2cnc3c(O)ncnc32)O1 [ddI, 2′,3′-dideoxyinosine]	> 90	virus rebound	continued releasing virus	18-185 fold	88-1200 fold	28	2600				
Oc1ccc(/C=C/c2cc(O)cc(O)c2)cc1 [RV, trans-3, 4′, 5-trihydroxystilbene]								only a modest anti-HIV effect	not toxic	over 60%	more than 95%
